Results: publication PMC8658998, “Identification of Novel Antistaphylococcal Hit Compounds Targeting Sortase A” (Molecules, 2021)
Read-outs that look alike come from different tables or passages of the source.

Target: T1, sortase A (Staphylococcus aureus, UniProt Q2FV99)
T1 construct: gene srtA
Assay: SensoLyte […] Sortase A FRET substrate cleavage assay (5-FAM/QXL)
Format: biochemical

T1 sequence (Q2FV99 whole entry): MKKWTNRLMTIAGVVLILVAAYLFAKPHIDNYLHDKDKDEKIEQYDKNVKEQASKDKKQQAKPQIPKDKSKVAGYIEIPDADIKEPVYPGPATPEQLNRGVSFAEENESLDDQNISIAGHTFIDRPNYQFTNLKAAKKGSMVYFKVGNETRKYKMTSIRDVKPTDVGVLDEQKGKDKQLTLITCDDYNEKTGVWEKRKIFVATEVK

| Structure (SMILES) | IC50 (read-out: IC50) [µM] | IC50 [µM] |
| --- | --- | --- |
| CCN(CC)CCCNc1cc([N+](=O)[O-])ccc1-c1ncc2ccccc2n1 [compound 1, N,N-diethyl-N′-(5-nitro-2-(quinazolin-2-yl)phenyl)propane-1,3-diamine] | 160 | – |
| c1ccc2c(Nc3ccc4[nH]cnc4c3)c3ccccc3nc2c1 [compound 2, acridin-9-yl-(1H-benzoimidazol-5-yl)-amine] | – | 207 |
